The text below walks through data of patent US8865206B1, “Surface modified multilayered nanostructures for dermal delivery” (Florida A&M University, priority 2010, dated 2014).

Holding throughout (type): physicochemical
A short description of series [1]: In vitro drug release through porous membrane, Franz diffusion cells. To be noted: within 24 hours of NPS application; 0.5% w/v Volpo in PBS (pH 7.4), 32° C. The procedure:
In vitro drug release studies of KP-NPS, SP-NPS, SP+KP-NPS, KP-NPS-OA, SP-NPS-OA and SP+KP-NPS-OA were performed to investigate the amount of drug released from NPS or NPS-OA. A porous membrane of MWCO at 50,000 Da (SIGMA-ALDRICH Co., St. Louis, Mo.) was used. The membrane was mounted between the donor and receiver compartments of Franz diffusion cells (N. Ghouchi Eskandar, S. Simovic, C. Prestidge, Nanoparticle coated submicron emulsions: sustained in-vitro release and improved dermal delivery of All-trans-retinol, Pharm Res, 26 (2009) 1764-1775).
The NPS dispersion was applied evenly on the surface of the membrane in the donor compartment. […] At predetermined time intervals (e.g., 1, 2, 4, 6, 8, 12, 22, 24, 48 and 72 hours), 0.5 ml samples were collected from the receiver compartment and replaced with fresh buffer solution. The samples collected from receiver compartment were analyzed for drug content using the HPLC method.

Series [2] can be described thus: Entrapment efficiency using vivaspin columns. To be noted: in NPS; unaffected by surface modification. How it is done: The NPS and NPS-OA (0.5 ml) were placed on top of the vivaspin centrifuge filter membrane and centrifuged at 4,500 rpm for fifteen (15) minutes. The amount of SP and KP present in the aqueous phase was estimated using HPLC.
Series [3] can be described thus: Solubility test in selected receiver fluids.

In the case of `CC(C(=O)O)c1cccc(C(=O)c2ccccc2)c1` (centres unmarked) [KP, Ketoprofen], in series [1], the “release of drug from NPS” value is recorded as more than 75%.
Consider Spantide II, for which the entrapment efficiency in series [2] is on record as 92.81%±2.17. Besides, the solubility entry is reported as “insoluble” in series [3] (0.1% w/v Volpo 20 in PBS (pH 7.4), 1 mg/ml); “soluble” in series [3] (0.5% w/v Volpo 20 in PBS (pH 7.4), 1 mg/ml); “soluble” in series [3] (5% w/v BSA in PBS (pH 7.4)); “precipitation was observed” in series [3] (SP and KP mixed together in PBS (pH 7.4) containing 10% w/v ethanol); “soluble” in series [3] (ethanol). In addition, the “release of drug from NPS” value in series [1] is 34%.
